Test results reported in patent publication US8569378B2, “p27 protein inducer” (Chugai Seiyaku Kabushiki Kaisha, priority 2007, dated 2013).
pEC50, pIC50: −log10 of the molar value. Counter-ions that a name gives are not always drawn.

Legend:
[1] = system: p27 protein; assay: Quantification of p27 protein by ELISA (p27 protein-inducing activity, EC50); format: cell-based, human; conditions: NCI-H460 cells, 48 hours, p27 sandwich ELISA
Experimental: The p27 protein-inducing activities of the compounds or salts listed in Tables 1-1, 1-2 and 2 below were measured as follows.
Preparation of Cell Lysate:
NCI-H460 human non-small cell lung cancer cells (ATCC HTB-177) were plated in 6-well plates at 2×10^5 cells/well and incubated overnight. Then, the test substance was added to the medium to a final concentration of 10000 nmol/L, 3000 nmol/L, 100 nmol/L, 30 nmol/L, 10 nmol/L, 3 nmol/L, 1 nmol/L, 0.3 nmol/L, 0.1 nmol/L, 0.03 nmol/L or 0.01 nmol/L and the cells were incubated at 37° C. in 5% CO2 for 48 hours. 150 μL of Cell Lysis Buffer (catalog no. 9803, Cell Signaling) which had been diluted to 1-fold concentration (1 mM PMSF was added immediately before use) was added, and the mixture was allowed to stand on ice for 10 minutes. The Cell Lysis Buffer in which cells were lysed was collected together with cells with a scraper and transferred to a new tube. It was centrifuged at 15000 rpm for 10 minutes at 4° C. and the supernatant was then transferred to a new tube.
Quantification by Sandwich ELISA:
Anti-p27 monoclonal antibody (catalog no. 71-9600, Zymed) was diluted to 5 μg/mL in 50 mM carbonate coating buffer (0.4 g/L NaCO3, 0.73 g/L NaHCO3 and 0.04 g/L NaN3 in distilled water), and it was then added at 50 μL/well and allowed to stand overnight at 4° C. to bind the antibody. After washing three times with PBS, 200 μL of blocking solution (0.2% I-Block in PBS) was added to each well. After 1 hour of incubation at room temperature, washing with PBS-T (0.05% Tween 20 in PBS) was performed three times. The sample and recombinant p27 protein standard were serially diluted in Cell Lysis Buffer (catalog no. 9803, Cell Signaling) which had been diluted to 1-fold concentration (1 mM PMSF was added immediately before use), and it was then added at 100 μL/well. After 1 hour of incubation at room temperature, washing with 200 μL of PBS-T was performed three times. HRP-labeled anti-p27 antibody (product no. 610243, BD Transdution Laboratories) was diluted 1:2500 (i.e. to 0.1 μg/mL) in 0.2% I-Block/0.05% PBS-T, and it was then added at 100 μL/well. After 1 hour of incubation at room temperature, washing with 200 μL of PBS-T was performed three times. Chromogenic substrate solution (TMB One Solution, catalog no. G7431, Promega) was added at 100 μL/well and allowed to develop a color reaction at room temperature. After stopping the reaction with 50 μL of 1N H2SO4, the absorbance at 450 nm was measured.
Calculation of EC50 Values:
A standard response curve was generated by plotting the amount of p27 protein against the concentration of the test substance. The basal level of response was defined as 0%, while the plateau level where the induction of p27 protein had been maximized was defined as 100%. Finally, the test substance concentration at which 50% induction was achieved was calculated, and it was defined as EC50.

[2] = system: TNF-α; assay: Measurement of TNF-α production inhibitory activity in LPS-stimulated THP-1 cells; format: cell-based; conditions: Homo sapiens, overnight, TNF-α in supernatant by ELISA, Table 3
Experimental: TNF-α is an inflammatory cytokine. It plays an important role in the initiation of inflammation, particularly in rheumatism. The TNF-α production inhibitory activities of the compounds or salts listed in Table 3 below were measured as follows.
THP-1 human monocytic leukemia cells (ATCC) were suspended to a cell density of 5×10^5 cells/mL in RPMI 1640 medium supplemented with 5% inactivated fetal bovine serum, and this suspension was aliquoted into a 96-well round-bottomed tissue culture plate at 0.2 mL/well. A solution of the test substance in DMSO was added to the suspension to a final concentration of […] and the mixture was subjected to pretreatment at 37° C. for 60 minutes. After pretreatment, lipopolysaccharide (LPS) from E. coli 055:B5 was added to a final concentration of […] and the mixture was incubated overnight in a 37° C., 5% CO^2 incubator. Then, the culture supernatant was collected from each well, and the concentration of TNF-α in the supernatant was determined with a human TNF-α ELISA kit (catalog no. KHC3011, BIOSOURCE) according to the manufacturer's instructions. The test substance concentration (IC50) at which 50% inhibition was achieved was calculated from the measurement.

[3] = system: type II collagen-induced arthritis; conditions: mouse, in vivo
Experimental: DBA/1JN mice (female, 8 weeks old, Charles River) were injected intradermally at the three sites of the base of the tail with 140 μL/mouse of a collagen gel prepared by mixing equal volumes of 0.3% aqueous bovine type II collagen solution (Collagen Technical Workshop) and complete Freund's adjuvant H37Ra (Difco). After 21 days, the mice were injected intradermally at the three sites of the back with 140 μL/mouse of a collagen gel prepared likewise. […] At every administration, the mice were treated at 0.04 mg/kg, 0.2 mg/kg, 1 mg/kg, 5 mg/kg or 25 mg/kg using 0.5% sodium carboxymethylcellulose as a vehicle. The mice treated with vehicle alone (i.e., the mice that were not treated with the test substance) were used as controls.
After the first collagen injection, arthritis score of each mouse was measured with time. The arthritis score was calculated by giving scores for both the toes and backs of all four paws of the mouse on the scale below and adding them together (the maximum possible total is 4 per paw and 16 per mouse).
Score 1: Moderate swelling

CNS(=O)(=O)Nc1cccc(Cc2c(C)c3cc(Cl)c(OC(=O)N(C)C)cc3oc2=O)c1 [Compound 1j-1-3-2, Dimethylcarbamic acid 3-(3-(N-methylsulfamoyl)aminobenzyl)-6-chloro-4-methyl-2-oxo-2H-1-benzopyran-7-yl ester]
pEC50 ([1]; Table 1-1): 7.27 | pIC50 [2]: 8.73

Cc1c(Cc2cccc(NS(N)(=O)=O)c2F)c(=O)oc2cc(OC(=O)N(C)C)c(F)cc12 [Compound 1j-1-5-1, Dimethylcarbamic acid 3-{2-fluoro-3-(aminosulfonyl)aminobenzyl}-6-fluoro-4-methyl-2-oxo-2H-1-benzopyran-7-yl ester]
pEC50 ([1]; Table 1-1): 6.23 | pIC50 [2]: 9.03

CNS(=O)(=O)Nc1cc(Cc2c(C)c3ccc(OC(=O)N(C)C)cc3oc2=O)ccn1 [Compound 1j-1-10-2, Dimethylcarbamic acid 4-methyl-3-{2-(methylaminosulfonyl)-aminopyridin-4-ylmethyl}-2-oxo-2H-1-benzopyran-7-yl ester]
pEC50 ([1]; Table 1-2): 6.43 | pIC50 [2]: 7.99

CNS(=O)(=O)Nc1cc(Cc2c(C)c3cc(F)c(OC(=O)N(C)C)cc3oc2=O)ccn1 [Compound 1j-1-11-2, Dimethylcarbamic acid 4-methyl-3-{2-(methylaminosulfonyl)aminopyridin-4-ylmethyl}-6-fluoro-2-oxo-2H-1-benzopyran-7-yl ester]
pEC50 ([1]; Table 1-2): 6.48 | pIC50 [2]: 8.28

Cc1c(Cc2cccc(NS(N)(=O)=O)c2F)c(=O)oc2cc(Oc3ncccn3)ccc12 [Compound 1j-2-4-1, 3-{2-Fluoro-3-(aminosulfonyl)aminobenzyl}-4-methyl-7-(pyrimidin-2-yloxy)-2-oxo-2H-1-benzopyran]
pEC50 ([1]; Table 2): 5.74 | pIC50 [2]: 7.59

CNS(=O)(=O)Nc1cccc(Cc2c(C)c3ccc(Oc4ncccn4)cc3oc2=O)c1F [Compound 1j-2-4-2, 3-{2-Fluoro-3-(methylaminosulfonyl)aminobenzyl}-4-methyl-7-(pyrimidin-2-yloxy)-2-oxo-2H-1-benzopyran]
pEC50 ([1]; Table 2): 6.14 | pIC50 [2]: 7.82

CNS(=O)(=O)Nc1cccc(Cc2c(CF)c3ccc(Oc4ncccn4)cc3oc2=O)c1F [Compound 1j-2-4-2F, 3-{2-Fluoro-3-(methylaminosulfonyl)aminobenzyl}-4-fluoromethyl-7-(pyrimidin-2-yloxy)-2-oxo-2H-1-benzopyran]
pEC50 ([1]; Table 2): 6.28 | pIC50 [2]: 8.04

CNS(=O)(=O)Nc1cccc(Cc2c(C)c3ccc(Oc4ncccn4)cc3oc2=O)c1F [Compound 1j-2-4-2Na, 3-{2-fluoro-3-(methylaminosulfonyl)aminobenzyl}-4-methyl-7-(pyrimidin-2-yloxy)-2-oxo-2H-1-benzopyran sodium salt]
type II collagen-induced arthritis (arthritis score) compared to the control group [3]: suppressed | type II collagen-induced arthritis (arthritis score), dose dependence [3]: dose-dependently suppressed

CNS(=O)(=O)Nc1cccc(Cc2c(C)c3cc(F)c(Oc4ncccn4)cc3oc2=O)c1F [Compound 1j-2-5-2, 3-{2-Fluoro-3-(methylaminosulfonyl)aminobenzyl}-4-methyl-7-(pyrimidin-2-yloxy)-6-fluoro-2-oxo-2H-1-benzopyran]
pEC50 ([1]; Table 2): 6.38 | pIC50 [2]: 7.83

Cc1c(Cc2cccc(NS(N)(=O)=O)c2F)c(=O)oc2cc(Oc3nccs3)ccc12 [Compound 1j-3-4-1, 3-{2-Fluoro-3-(aminosulfonyl)aminobenzyl}-4-methyl-7-(thiazol-2-yloxy)-2-oxo-2H-1-benzopyran]
pEC50 ([1]; Table 1-2): 6.37 | pIC50 [2]: 8.13

CNS(=O)(=O)Nc1cccc(Cc2c(C)c3ccc(Oc4nccs4)cc3oc2=O)c1F [Compound 1j-3-4-2, 3-{2-Fluoro-3-(methylaminosulfonyl)aminobenzyl}-4-methyl-7-(thiazol-2-yloxy)-2-oxo-2H-1-benzopyran]
pEC50 ([1]; Table 1-2): 6.57 | pIC50 [2]: 8.74

CNS(=O)(=O)Nc1cc(Cc2c(C)c3cc(C)c(Oc4nccs4)cc3oc2=O)ccn1 [Compound 1j-3-20-2, 3-{2-(Methylaminosulfonyl)aminopyridin-4-ylmethyl}-4-methyl-6-methyl-7-(thiazol-2-yloxy)-2-oxo-2H-1-benzopyran]
pEC50 ([1]; Table 1-2): 7.00

CNS(=O)(=O)Nc1nccc(Cc2c(C)c3cc(C)c(Oc4nccs4)cc3oc2=O)c1Cl [Compound 1j-3-44-2, 3-{2-(Methylaminosulfonyl)amino-3-chloropyridin-4-ylmethyl}-4-methyl-6-methyl-7-(thiazol-2-yloxy)-2-oxo-2H-1-benzopyran]
pEC50 ([1]; Table 1-2): 6.69

CNC(=O)CS(=O)(=O)Nc1cccc(Cc2c(C)c3cc(Cl)c(OC(=O)N(C)C)cc3oc2=O)c1 [Compound 1o-1-3-2, Dimethylcarbamic acid 3-(3-methylcarbamoylmethanesulfonylamino-benzyl)-6-chloro-4-methyl-2-oxo-2H-1-benzopyran-7-yl ester]
pEC50 ([1]; Table 1-1): 6.54

Cc1c(Cc2cccc(NS(=O)(=O)CC(=O)N(C)C)c2)c(=O)oc2cc(OC(=O)N(C)C)c(Cl)cc12 [Compound 1o-1-3-3, Dimethylcarbamic acid 3-(3-dimethylcarbamoylmethanesulfonylamino-benzyl)-6-chloro-4-methyl-2-oxo-2H-1-benzopyran-7-yl ester]
pEC50 ([1]; Table 1-1): 6.72

CNC(=O)CS(=O)(=O)Nc1cccc(Cc2c(C)c3ccc(Oc4nccs4)cc3oc2=O)c1F [Compound 1o-3-4-2, 2-{2-Fluoro-3-[4-methyl-2-oxo-7-(thiazol-2-yloxy)-2H-1-benzopyran-3-ylmethyl]phenylsulfamoyl}-N-methyl-acetamide]
pEC50 ([1]; Table 2): 5.58
